Reference: patent US12448362B2, “Fluorine-containing pyrimidine compound and fluorine-containing pyrimidinone compound” (UNIMATEC CO., LTD., priority 2020, dated 2025)

System: cucumber powdery mildew
Assay: Evaluation test for cucumber powdery mildew (cucumber leaf disc, lesion area after 14 days)
Format: in vivo
Settings: 500 ppm in acetone; cucumber leaf disc sprayed with spore suspension; 25° C., 12 hours illumination; lesion area after 14 days vs untreated section
Method: Each of the fluorine-containing pyrimidine compounds prepared in Examples 32 and 36 was dissolved in acetone and diluted to a concentration of 500 ppm. Subsequently, a cucumber leaf disc (20 mm in diameter) was put into the diluted acetone solution and completely wetted, and then the cucumber leaf disc was placed so that the back surface of the cucumber leaf disc was in contact with a plain agar medium that had been prepared separately, and air-dried. After air-drying, a spore suspension of the cucumber powdery mildew was uniformly sprayed on the cucumber leaf disc and air-dried. The cucumber leaf disc was then left in a thermostat (25° C., 12 hours illumination), and after 14 days, the area of lesions was examined to calculate the control value. Note that the control value was calculated according to the following formula. In the following formula, “untreated” means that a cucumber leaf disc was wetted with only acetone as a test solution, and “untreated section” means a section of the wetted cucumber leaf disc. [formula]

Cc1ccc(Nc2nc(-c3ccccn3)nc(Cl)c2C(F)(F)F)cc1 [Example 32, 6-chloro-N-(4-methylphenyl)-2-(2-pyridyl)-5-(trifluoromethyl)-4-pyrimidinamine]
Control value: 57.1

Cc1ccc(Nc2nc(-c3cccnc3)nc(Cl)c2C(F)(F)F)cc1 [Example 36, 6-chloro-N-(4-methylphenyl)-2-(3-pyridyl)-5-(trifluoromethyl)-4-pyrimidinamine]
Control value: 67.9
